In patent publication US20090076012A1, “Modulation of pathogenicity” (priority 2002, published 2009) one finds IC50 data, which are given here for 19 compounds.

For this experiment, the system named is bioluminescent sensor strain Escherichia coli MT102 (pSB403). The experiment can be described thus: Biosensor assay: quorum sensing inhibition, bioluminescence of the sensor strain. The class given is cell-based. The settings on record: 3oxo-C6-HSL 100 nM, bioluminescence after 4 hours at 30° C. The protocol: Quorum sensing inhibition of the compounds was investigated with the aid of the bioluminescent sensor strain Escherichia coli MT102 (pSB403) (Winson et al., FEMS Microbiol. Lett. 163:185-92, 1998). Plasmid pSB403 contains the Photobacterium fischeri luxR gene together with the […] promoter region as a transcriptional fusion to the bioluminescence genes luxCDABE of Photorhabdus luminescence.
Inhibitory studies were conducted in a microtitre dish assay as follows: the E. coli sensor strain grown over night in LB medium (Sambrook et al., Molecular Cloning: A Laboratory Manual. 2nd Edn. Cold Spring Harbor Laboratory, New York, 1989) was diluted 1:4 and grown for another 1 hour at 30° C. After addition of 3oxo-C6-HSL (final concentration 100 nM) 100 μl of an exponential culture suspension were filled in the wells of a FluoroNunc Polysorp microtitre dish. The test compounds were added to the culture in different concentrations and bioluminescence was measured after 4 hours of incubation at 30° C. with a Lamda Fluoro 320 Plus reader (Bio-Tek Instruments). Inhibitor-mediated reduction of light emission was correlated with the value obtained without addition of the test compounds. IC50 values (concentration of inhibitor required for 50% inhibition of the signal compared to the signal without inhibitor) were determined by using a fitting function after drawing a graph of the activities of eight different inhibitor concentrations.

The term IC50 denotes the concentration that gives 50% inhibition. High values mean weaker potency, low ones greater potency. Turning to `CCCCCCC(=O)CC(=O)Nc1nc(C)co1` [Compound 134, 3-Oxo-nonanoic acid (4-methyl-oxazol-2-yl)-amide], where the note is “Escherichia coli, 4 h”, the concentration for half-maximal inhibition (IC50) is above 100 µM.

Turning to `CCCCCCCC(=O)NNC(=O)c1c(C)noc1C` [Compound 91, 3,5-Dimethyl-isoxazole-4carboxylic acid N′-octanoyl-hydrazide], where the note is “Escherichia coli, 4 h”, the IC50 fell in the range of 1 to 50 µM.

`Cc1ccc(C(=O)NNC(=O)c2cccs2)s1` [Compound 54, Thiophene-2-carboxylic acid N′-(5-methyl-thiophene-2-carbonyl)-hydrazide]: the IC50 (Escherichia coli, 4 h) lay in the range of 1 to 50 µM.

On to `CCn1nc(C)c(Br)c1C(=O)NNC(=O)c1ccc(Cl)s1` [Compound 73, 4-Bromo-2-ethyl-5-methyl-2H-pyrazole-3-carboxylic acid N′-(5-chloro-thiophene-2-carbonyl)-hydrazide], for which the IC50 fell in the range of 1 to 50 µM.

The compound `O=C(NNC(=O)c1ccc(Cl)s1)c1cccs1` [Compound 52, Thiophene-2-carboxylic acid N′-(5-chloro-thiophene-2-carbonyl)-hydrazide] came in with an IC50 (Escherichia coli, 4 h) of 50 to 100 µM.

`Cn1nc(-c2cccs2)cc1NC(=O)c1cccc(Cl)c1` [Compound 15, 3-Chloro-N-(2-methyl-5-thiophen-2-yl-2H-pyrazol-3-yl)-benzamide] registered an IC50 (Escherichia coli, 4 h) of 1 to 50 µM.

In turn, `O=C(NNc1nccc(C(F)(F)F)n1)c1cccs1` [Compound 25, Thiophene-2carboxylic acid N′-(4-trifluoromethyl-pyrimidin-2-yl)-hydrazide] showed an IC50 (Escherichia coli, 4 h) of 1 to 50 µM.

The compound `Cn1nccc1NC(=O)c1cnc(Cl)nc1C(F)(F)F` [Compound 1, 2-Chloro-4-trifluoromethyl-pyrimidine-5-carboxylic acid (2-methyl-2H-pyrazol-3-yl)-amide] had an IC50 (Escherichia coli, 4 h) of 1 to 50 µM.

For the compound `Cc1nc(C(F)(F)F)ccc1C(=O)NNC(=O)c1cccs1` [Compound 27, 2-Methyl-6-trifluoromethyl-nicotinic acid N′-(thiophene-2-carbonyl)-hydrazide], the IC50 (Escherichia coli, 4 h) lay within 1 to 50 µM.

Take `O=C(NNC(=O)c1sccc1Cl)c1sccc1Cl` [Compound 49, 3-Chloro-thiophene-2-carboxylic acid N′-(3-chloro-thiophene-2-carbonyl)-hydrazide]: where the note is “Escherichia coli, 4 h”, the concentration for half-maximal inhibition (IC50) lay in the range of 50 to 100 µM.

Consider `CCCCNC(=S)NNC(=O)c1cccs1` [Compound 100, 4-Butyl-1-(thiophene-2-carbonyl)-thiosemicarbazide], for which the concentration for half-maximal inhibition (IC50) (Escherichia coli, 4 h) lay in the range of 1 to 50 µM.

Turning to `CCn1nc(C)c(Br)c1C(=O)NNC(=O)c1ccc(Br)s1` [Compound 71, 4Bromo-2-ethyl-5-methyl-2H-pyrazole-3-carboxylic acid N′-(5-bromo-thiophene-2-carbonyl)-hydrazide], the IC50 (Escherichia coli, 4 h) lay within 1 to 50 µM.

For the setting “Escherichia coli, 4 h”, `CCCC(=O)NNC(=O)c1ccc(Br)s1` [Compound 77, 5-Bromo-thiophene-2-carboxylic acid N′-butyryl-hydrazide] displayed an IC50 of 1 to 50 µM.

For `CCOc1ccsc1C(=O)NNC(=O)c1sccc1Cl` [Compound 44, 3-Chloro-thiophene-2-carboxylic acid N′-(3-ethoxy-thiophene-2-carbonyl)-hydrazide], the IC50 (Escherichia coli, 4 h) was above 100 µM.

Under “Escherichia coli, 4 h”, `CCCCCCC(=O)NNC(=O)c1scc(C)c1Cl` [Compound 81, 3-Chloro-4-methyl-thiophene-Z-carboxylic acid N′-heptanoyl-hydrazide] had an IC50 of 1 to 50 µM.

`CCCCCCC(=O)CC(=O)Nc1cc(C)no1` [Compound 132, 3-Oxo-nonanoic acid (3-methyl-isoxazol-5-yl)-amide] showed an IC50 (Escherichia coli, 4 h) above 100 µM.

For `Cn1nc(C(C)(C)C)cc1C(=O)NNC(=O)c1ccc(Cl)s1` [Compound 69, 5-tert-Butyl-2-methyl-2H-pyrazole-3-carboxylic acid N′-(5-chloro-thiophene-2-carbonyl)-hydrazide], the IC50 (Escherichia coli, 4 h) is 1 to 50 µM.

For the setting “Escherichia coli, 4 h”, `CCCCCCCCCC(=O)CC(=O)Nc1ccon1` [Compound 131, 3-Oxo-dodecanoic acid isoxazol-3-ylamide] came in with an IC50 above 100 µM.

In the case of `CCCCCCCC(=O)NNC(=O)c1cccnc1Cl` [Compound 94, 2-Chloro-nicotinic acid N′-octanoyl-hydrazide], the IC50 (Escherichia coli, 4 h) lay in the range of 1 to 50 µM.
